These are literature values, as cited in patent publication US5972966A, “Inhibitors of farnesyl-protein transferase” (Merck & Co., Inc., priority 1997, dated 1999).

For data set [1], the system named is farnesyl-protein transferase. The settings on record: by inhibiting HMG-CoA reductase.
A further data set concerns Ras processing in cells. To be noted: by inhibiting the rate-limiting step in the isoprenoid biosynthetic pathway.

Take `CC[C@H](C)C(=O)O[C@H]1C[C@@H](C)C=C2C=C[C@H](C)[C@H](CC[C@@H]3C[C@@H](O)CC(=O)O3)[C@H]21` [lovastatin]: the “Indirect inhibition of farnesyl-protein transferase in vivo” value in data set [1] was “Indirect inhibition”. For the same compound, the “blocking of Ras processing in cells” value in the data set with Ras processing in cells is given as “blocks Ras processing in cells”.
Regarding `CC[C@H](C)C(=O)O[C@H]1CCC=C2C=C[C@H](C)[C@H](CC[C@@H]3C[C@@H](O)CC(=O)O3)[C@H]21` [compactin], the “Indirect inhibition of farnesyl-protein transferase in vivo” value in data set [1] is “Indirect inhibition”.
